Data on 4 compounds can be found in ChEMBL document CHEMBL4325903, “N-Substituted aminoquinoline-pyrimidine hybrids: Synthesis, in vitro antimalarial activity evaluation and docking studies” (Eur J Med Chem, 2019).

Series [1] in a line: Binding affinity to hemin assessed as 1:1 stoichiometry for compound-hemin complex up to 12 uM at pH 5.6 by Job's plot analysis.
Series [2] deals with Plasmodium falciparum. In words: Antimalarial activity against chloroquine-resistant Plasmodium falciparum W2 infected in RBC after 72 hrs by LDH release assay. Format: functional, organism-based. As to conditions: W2, 72 h. On the technique in general: Release of lactate dehydrogenase indicates damage to the cell membrane.
The test system of series [3] is Vero. Kind of series: Cytotoxicity against African green monkey Vero cells up to 10 uM after 48 hrs by neutral red assay. As to conditions: chlorocebus sabaeus. Format: cell-based.
Series [4] is described as follows: Binding affinity to hemin assessed as 1:1 stoichiometry for compound-hemin complex up to 12 uM at pH 7.4 by Job's plot analysis.
The next series has as its system mu-oxodimeric heme. In words: Binding affinity to mu-oxodimeric heme assessed as 1:1 up to 20 uM at pH 5.8 by titration method.
The subject of series [5] is Plasmodium falciparum. In words: Potency index, ratio of chloroquine IC50 to compound IC50 for antimalarial activity against chloroquine-resistant Plasmodium falciparum W2 infected in RBC. Format: functional.
A short description of series [6]: Selectivity index, ratio of IC50 for cytotoxicity against African green monkey Vero cells to IC50 for chloroquine-sensitive Plasmodium falciparum D6. Format: toxicity, cell-based. As to conditions: read-out: Ratio IC50.
The test system of series [7] is Plasmodium falciparum. In words: Antimalarial activity against chloroquine-sensitive Plasmodium falciparum D6 infected in RBC after 72 hrs by LDH release assay. Format: functional, organism-based. As to conditions: D6, 72 h.
Series [8] in a line: Selectivity index, ratio of IC50 for cytotoxicity against African green monkey Vero cells to IC50 for chloroquine-resistant Plasmodium falciparum W2. Format: toxicity, cell-based. Particulars: read-out: Ratio IC50.
In series [9] the test system is Vero. In words: Cytotoxicity against African green monkey Vero cells after 48 hrs by neutral red assay. Format: cell-based. As to conditions: chlorocebus sabaeus.

Activity calls are given as the source filed them. No cut-off for these calls is given here.

As for `Cc1cc(N(CCNc2ccnc3cc(Cl)ccc23)Cc2ccccn2)nc(N2CCN(C)CC2)n1`, the results for the Activity (in series [1]; in the series on Vero [3]; in series [4]) were 0.5 molar ratio, “Non-Toxic” and 0.5 molar ratio, respectively. Further, the IC50 (in general, the concentration that inhibits the measured activity by half) in the series with Plasmodium falciparum [2] is 142 nM. For the same compound, the outcome in the series with mu-oxodimeric heme was Active.
`CCN1CCN(c2cc(C)nc(N(CCCNc3ccnc4cc(Cl)ccc34)Cc3cccs3)n2)CC1`: in the series on Plasmodium falciparum [5], the “Ratio IC50” value is 22. In addition, the IC50 in the series on Plasmodium falciparum [2] was 18.9 nM; with Plasmodium falciparum [7], 32.8 nM. Moreover, the Activity entry with Vero [3] was “Non-Toxic”. Moreover, the results for the selectivity ratio in series [6] and in series [8] were more than 27 and more than 46.8, respectively.
In the case of `Cc1cc(N(CCCNc2ccnc3cc(Cl)ccc23)Cc2cccs2)nc(N2CCCCC2)n1`, the 50% inhibitory concentration (IC50) in the series on Plasmodium falciparum [2] was determined as 235 nM; in the series on Vero [9], 9150 nM; with Plasmodium falciparum [7], 83.7 nM. Further, the values for the selectivity ratio in series [6] and in series [8] were 109 and 38.9, respectively.
On to `Cc1cc(N2CCCCC2)nc(N(CCCNc2ccnc3cc(Cl)ccc23)Cc2cccs2)n1`, for which the IC50 in the series on Plasmodium falciparum [2] came out at 185 nM; in the series with Vero [9], 7200 nM; in the series on Plasmodium falciparum [7], 44.6 nM. The values for the selectivity ratio in series [6] and in [8] were 161 and 38.9, respectively.
